Experimental data from patent US8716231B2, “Use of benzo-fused heterocycle sulfamide derivatives for the treatment of pain” (Janssen Pharmaceutica NV, priority 2005, dated 2014).
Where “and” joins values, the source holds several entries; their conditions need not be identical. Equal entries are not always repeated.

Key:
[1] = test system: tactile allodynia in L5 SNL rats (von Frey withdrawal threshold); test: Lumbar 5 (L5) Spinal Nerve Ligation (Chung) Model of Neuropathic Pain, Studies A-D; type: in vivo, Sprague-Dawley rats; conditions: for withdrawal thresholds: 2 hrs, 4 hrs and 6 hrs after oral administration
From the text: The rat Chung model is an assay used in determining whether a compound is useful for the treatment of neuropathic pain (Kim and Chung, 1994; Chaplan et al., 1994). In this assay, injury to the sciatic nerve by loose ligation with chromic gut suture, tight ligation of the L5 spinal nerve with silk suture or partial tight ligation with silk suture each produces hypersensitivity to many stimulus modalities (e.g., touch, pressure, temperature) that lasts for weeks or months. Hypersensitivity produced by such injuries is reminiscent of allodynia and hyperalgesia observed in clinical conditions of neuropathic pain caused by mechanical nerve injury, diabetes and chemotherapy. This assay is predictive of analgesic, antiallodynic and/or antihyperalgesic effect of test compounds.
Test compound and controls were dissolved in the appropriate volume of 0.5% HPMC or 10% solutol in 0.5% hydoxypropyl methylcellulose (HPMC). HPMC served as the vehicle for preparation of gabapentin solutions used as the positive control. Solutions were prepared to provide the final dose in a volume of 2.5 mL/kg or 5 mL/kg p.o. for rats. Male, Sprague-Dawley rats from Harlan Industries (Indianapolis, Ind.), weighing 150 to 250 grams at the time of surgery, were used for L5 SNL studies.
Rats in the SNL studies were housed and tested in the same room. Animals were housed in micro-isolator cages in groups of four rats per cage or 5 mice per cage with corncob bedding and free access to food and water. The environment was maintained at a constant temperature of 21° C., with a 12-hour light/dark cycle. Rats undergoing L5 SNL surgery were placed into individual housing cages with alpha dry bedding and had access to enrichment food, food pellets and water ad libitum. Animals were allowed four to six weeks recovery from surgery prior to testing and were not tested beyond eight weeks post-surgery. For L5 SNL testing, only those animals that responded to less than 4 gr force were included in further testing and analysis, being randomized into treatment groups on the day of study. In all tests, the investigator performing the behavioral analysis was blinded to the treatment administered to any individual animal.
For L5 SNL surgery, rats were induced and maintained on isoflurane inhalation anesthesia. A 2-cm skin incision was made just left of midline over the dorsal aspect of the L4-S2 spinal segments, followed by separation of the paraspinal muscles from spinous processes. The transverse process of L6 was then carefully removed and the L5 spinal nerve was identified. The left L5 spinal nerve was then ligated tightly with 6-0 silk thread, the muscle was sutured with 4-0 vicryl, and the skin was closed with wound clips.
Behavioral testing was performed on L5SNL rats at a time between 3-6 weeks post-ligation. […] Tactile allodynia was quantified at 30 min, 1 hr, 2 hrs, 4 hrs, 6 hrs, 8 hrs and/or 24 hr post-dosing by recording the force at which the paw ipsilateral to the nerve ligation was withdrawn from the application of a series of calibrated von Frey filaments (0.4, 0.7, 1.2, 2.0, 3.6, 5.5, 8.5 and 15.1 g; Stoelting; Wood Dale, Ill.). Beginning at an intermediate stiffness (2.0 g), filaments were applied to the mid-plantar hind paw for approximately 5 seconds. A brisk paw withdrawal led to the presentation of the next lighter stimulus and the lack of a withdrawal response led to the presentation of the next stronger stimulus to determine the response threshold. A total of four responses after the first threshold detection were collected. The 50% withdrawal thresholds were interpolated by the method of Dixon (as described in Meert T F and Vermeirsch, H A, Pharmacol. Biochem. Behav.; 2005, 80(2), pp 309-326) and when response thresholds fell above or below the range of detection, respective values of 15.0 or 0.25 g were assigned. […]

[2] = test system: mechanical (tactile) allodynia after L5 nerve ligation; test: Rat Chung Model of Neuropathic Pain (Example 14); type: in vivo, Sprague Dawley rats
From the text: The rat Chung model is an assay used in determining whether a compound is useful for the treatment of neuropathic pain (Kim and Chung, 1994; Chaplan et al., 1994).
In this study, male Sprague Dawley rats (145-165 g; Harlan) were anesthetized and the L5 nerve was isolated and ligated with silk suture material resulting in mechanical allodynia. […] The results were normalized and results are presented as % MPE ([…]) of the drug.

[3] = test system: CFA induced thermal hypersensitivity (radiant heat paw withdrawal latency); test: Complete Freund's Adjuvant (CFA)-induced Model of Inflammatory Pain; type: in vivo, Sprague-Dawley rats; conditions: 560 mg/kg oral; 4 hr after oral administration
Experimental: Intraplantar injection of CFA in rats results in a long-lasting inflammatory reaction, characterized by edema and a pronounced hypersensitivity to both thermal and mechanical stimuli. This hypersensitivity peaks between 24-72 hours after injection and can last for several weeks. This assay predicts the analgesic, antiallodynic and/or antihyperalgesic effect of test compounds.
Test compound and controls were dissolved in the appropriate volume of 0.5% HPMC or 10% solutol in 0.5% hydoxypropyl methylcellulose (HPMC). Solutions were prepared to provide the final dose in a volume of 2.5 mL/kg or 5 mL/kg p.o. for rats. Male, Sprague-Dawley rats from Charles Rivers Laboratories (Portage, Me.), weighing between 250 and 350 grams at the time of study, were used for the CFA paw radiant heat studies.
Rats in the CFA study were moved to a testing room the day of the CFA injection, where they remained for the duration of the study. […]
On the day of study, rats were given a 100 μL (1 μg/μL) intraplantar injection of CFA (1:1 CFA:saline) into their left hindpaw. […] Percent Reversal of hyperalgesia was calculated for each animal as [(treatment response)−(post-CFA response)]/[(pre-CFA response)−(post-CFA response)]×100. Average % reversal of hyperalgesia was then calculated for each treatment group (n=5-6 rats/group). […]

NCC1(CC(=O)O)CCCCC1 [gabapentin, reference compound]
% reversal (withdrawal threshold) ([1]; Study A, 480 mg/kg, 2 hrs post-dosing, six weeks after surgery): 73.2±14.7% | % reversal (withdrawal threshold) ([1]; Study A, 480 mg/kg, 4 hrs post-dosing, six weeks after surgery, 480 mg/kg): 73.7±16.6% and 73.4±15.2% | withdrawal thresholds ([1]; Study A): significantly increased withdrawal thresholds | % reversal of mechanical allodynia relative to baseline ([1]; Study C, 560 mg/kg, 2 hrs post dosing): 58.7% | % reversal of mechanical allodynia relative to baseline ([1]; Study C, 560 mg/kg, 4 hrs post dosing): 86.4% | decrease in mechanical allodynia relative to baseline ([1]; Study C, 560 mg/kg, 6 hrs post dosing): not at 6 hrs post dosing | effect of positive control on mechanical allodynia ([2]; 480 mg/kg p.o.): equivalent to the activity measured for Compound #8 at 240 mg/kg dosing | peak reversal of thermal hypersensitivity (compared with the 24-hr post-CFA baseline) [3]: 68.6%

NS(=O)(=O)NC[C@H]1COc2cc(Cl)ccc2O1 [Compound #8, (2S)-(−)-N-(6-Chloro-2,3-dihydro-benzo[1,4]dioxin-2-ylmethyl)-sulfamide]
% reversal (withdrawal threshold) ([1]; Study A, 120 mg/kg oral, 1 hr): 42.2±13.8% | % reversal (withdrawal threshold) ([1]; Study A, 120 mg/kg oral, 4 hrs): 45.4±12.2% | % change (withdrawal threshold) ([1]; Study A, 240 mg/kg, 4 hr): 65.6±21.1% | withdrawal thresholds ([1]; Study A): significantly increased withdrawal thresholds | reversal in tactile hypersensitivity, peak effect ([1]; Study B, first administration (Day 1), 480 mg/kg, 4 hrs after dosing, three weeks after surgery): 64.3±9.9% | reversal in tactile hypersensitivity ([1]; Study B, first administration, other treatment groups (60, 120, 240 mg/kg)): No significant differences were observed | reversal of tactile hypersensitivity ([1]; Study B, third and seventh day of daily dosing, 60-480 mg/kg): none of the treatment groups exhibited a significant reversal of tactile hypersensitivity | effect on mechanical allodynia ([1]; Study C, 100 mg/kg, 300 mg/kg or 560 mg/kg, p.o., 4 weeks after surgery): did not show a statistically significant effect up to 6 hrs | decrease in mechanical allodynia ([1]; Study D, 560 mg/kg p.o. in 10% solutol in HPMC, four weeks after surgery): showed a decrease in mechanical allodynia at 4 hrs and 6 hrs post dosing, but with a p=0.054 | time at which efficacy peaked ([2]; 120 mg/kg p.o.): 1 h | time at which efficacy was observed ([2]; 120 mg/kg p.o.): 30 min | time post-dosing at which efficacy was sustained ([2]; 120 mg/kg p.o.): 4 h | time at which efficacy peaked ([2]; 240 mg/kg, po): 2 to 4 h | time at which efficacy was observed ([2]; 240 mg/kg, po): 30 min | time post-dosing at which efficacy was sustained ([2]; 240 mg/kg, po): 24 h | peak reversal of thermal hypersensitivity (compared with the 24-hr post-CFA baseline) [3]: 86.0%
